From patent US11306095B2 (EAST CHINA UNIVERSITY OF SCIENCE AND TECHNOLOGY, priority 2015, dated 2022)
In brackets after ≈: the same amount, converted by molar mass. Read-outs that look alike come from different tables or passages of the source.

Assays:
[1] = Determination of solubility in water (PBS 20 mM, pH 6.8); format: physicochemical; details: PBS buffer, aqueous buffer, thermodynamic from solid
Method: The suspension was filtered through a 0.22 μm PVDF filter, and then diluted to an appropriate concentration with methanol (v=50%) and PBS (v=50%), and the absorbance was measured by a UV spectrophotometer. About 3 mg of compound was accurately weighed, and methanol was added for preparing a stock solution of 1 mg/mL. The above stock solution was taken and prepared into a solution at concentrations of 0.05, 0.04, 0.03, 0.02 and 0.01 mg/mL, respectively, PBS solution (v=50%) was added and the absorbance value was measured. Concentration c (mg/mL) as horizontal ordinate vs absorbance A as longitudinal coordinate was plotted, and a line was fitted for obtaining a standard curve (correlation coefficient greater than 0.998). The solubility of a compound in water was calculated from the standard curve.

[2] = test system: A431 cells (EGFR wild type); test: Inhibitory activity on cell proliferation, A431; format: cell-based; details: Homo sapiens, A-431; A431, 72 hours; read-out: Inhibitory activity on proliferation of cells (IC50, μM) A431
Method: (§1) Cell proliferation activity was assessed by MTS assay. Cells were exposed to processing conditions for 72 hours and the number of cells used in each experiment for each cell line was adjusted based on absorbance values (absorbance values at 490 nm, 1.3-2.2). Six concentration gradients (0.1 nM-10 μM) were set for the compounds to be tested, wherein at least 6 sets of parallel controls for each concentration were used.
(§2) H1975, A431 cells were cultured in corresponding media, and cells were passaged at least twice after resuscitation and then used for experiments. Cells at Log phase were trypsinized and resuspended in culture medium. H1975 (1000 cells per well), A431 (2000 cells per well) were seeded in 96-well plates in a volume of 100 μL; and 6 sets of parallel controls and 7 columns were set. The plate was placed in a 37° C. 5% CO2 incubator overnight. Compounds were dissolved in DMSO to a concentration of […], and then the concentration was gradually diluted to 10 μM, 1 μM, 0.1 μM, 0.01 μM, 0.001 μM, 0.0001 μM per liter, respectively. 2 μL of the compound solution was added to 998 μL of medium, and the mixture was thoroughly mixed. 100 μL of the mixture was added to a 96-well plate. […] After culturing for 68 hours, 20 μL of MTT (5 mg/mL) was added. After 4 hours, the supernatant was discarded and 150 μL of DMSO was added. After shaking for 10 minutes, the plate was read with Synergy HT (Bio TeK) (OD490). Data were calculated using GraphPad Prism version 4.0 and IC50 values were obtained using a non-linear regression model of dose response curve.

[3] = test system: H1975 cells (EGFR L858R/T790M); test: Inhibitory activity on cell proliferation, H1975; format: cell-based; details: Homo sapiens, NCI-H1975
Method: as §1, §2

EGFR-L858R/T790M = target: T1, EGFR-L858R/T790M (Homo sapiens, UniProt P00533, L858R/T790M); test: Kinase activity test (FRET), EGFR T790M/L858R; format: biochemical
T1 construct: purchased Invitrogen PV4879
Method: (§3) EGFR-TK catalyses transfer of one phosphate group of adenosine triphosphate (ATP) to polypeptide substrate, poly(Glu, Tyr)4:1, which is labeled with two fluorescent groups coumarin and fluorescein.
(§4) 2.5 μL of Test Compounds, 5 μL Kinase/Peptide Substrate Mixture, 2.5 μL ATP Solution were added into a 384-well plate, and the 10 μL of reaction system was shaken for 30 s and incubated at room temperature for 1 h. 5 μL of Development Solution was added and the 15 μL of reaction system was shaken for 30 s, and incubated at room temperature for 1 h. […] The inhibitory rates of the compounds at 7 concentration gradients were determined and the IC50 value for each compound was calculated by Origin 8.0 fitting curve.
(§5) 10 concentration gradients from 5.1×10^−11 mol/L to 1.0×10^−6 mol/L were set for all compounds to be tested.
(§6) Compounds were diluted in DMSO for three times from 5.1×10^−9 M to 1×10^−4 M. 4 μL of the compound was dissolved in 96 μL of water to obtain a 4× compound solution. […] The 10 μL kinase reaction consisted of 2.5 μL compound solution, 5 μL kinase/peptide mix, 2.5 μL ATP solution. […] 5 μL of phosphorylated peptide solution, instead of the kinase/peptide mixture, was used as a 100% phosphorylation control. […] The plates were thoroughly mixed and incubated at room temperature for 1.5 hours. 5 μL of Development Solution was added into each well and then incubated for another 1 hour at room temperature, unphosphorylated peptides were cleaved during this period. Finally, 5 μL Stop Reagent was added to quench the reaction. The plates were measured with EnVision Multilabel Reader (Perkin Elmer). The experimental data were calculated using GraphPad Prism version 4.0. Each experiment was repeated more than 3 times.

Wild type EGFR = target: T2, Wild type EGFR (Homo sapiens, UniProt P00533); test: Kinase activity test (FRET), wild type EGFR; format: biochemical; details: wild type EGFR
T2 construct: purchased Invitrogen PV3872
Method: as §3, §4, §5, §6

[4] = pH 6.8, 20 mM PBS, read-out: Solubility (pH 6.8, g/mL)
[5] = H1975, 72 hours, read-out: Inhibitory activity on proliferation of cells (IC50, μM) H1975
[6] = EGFR T790M/L858R, read-out: Inhibitory activity of EGFR on kinase (IC50, nM) T790M/L858R
[7] = read-out: Inhibitory activity of EGFR on kinase (IC50, nM) WT

T2 sequence (P00533 25-1210): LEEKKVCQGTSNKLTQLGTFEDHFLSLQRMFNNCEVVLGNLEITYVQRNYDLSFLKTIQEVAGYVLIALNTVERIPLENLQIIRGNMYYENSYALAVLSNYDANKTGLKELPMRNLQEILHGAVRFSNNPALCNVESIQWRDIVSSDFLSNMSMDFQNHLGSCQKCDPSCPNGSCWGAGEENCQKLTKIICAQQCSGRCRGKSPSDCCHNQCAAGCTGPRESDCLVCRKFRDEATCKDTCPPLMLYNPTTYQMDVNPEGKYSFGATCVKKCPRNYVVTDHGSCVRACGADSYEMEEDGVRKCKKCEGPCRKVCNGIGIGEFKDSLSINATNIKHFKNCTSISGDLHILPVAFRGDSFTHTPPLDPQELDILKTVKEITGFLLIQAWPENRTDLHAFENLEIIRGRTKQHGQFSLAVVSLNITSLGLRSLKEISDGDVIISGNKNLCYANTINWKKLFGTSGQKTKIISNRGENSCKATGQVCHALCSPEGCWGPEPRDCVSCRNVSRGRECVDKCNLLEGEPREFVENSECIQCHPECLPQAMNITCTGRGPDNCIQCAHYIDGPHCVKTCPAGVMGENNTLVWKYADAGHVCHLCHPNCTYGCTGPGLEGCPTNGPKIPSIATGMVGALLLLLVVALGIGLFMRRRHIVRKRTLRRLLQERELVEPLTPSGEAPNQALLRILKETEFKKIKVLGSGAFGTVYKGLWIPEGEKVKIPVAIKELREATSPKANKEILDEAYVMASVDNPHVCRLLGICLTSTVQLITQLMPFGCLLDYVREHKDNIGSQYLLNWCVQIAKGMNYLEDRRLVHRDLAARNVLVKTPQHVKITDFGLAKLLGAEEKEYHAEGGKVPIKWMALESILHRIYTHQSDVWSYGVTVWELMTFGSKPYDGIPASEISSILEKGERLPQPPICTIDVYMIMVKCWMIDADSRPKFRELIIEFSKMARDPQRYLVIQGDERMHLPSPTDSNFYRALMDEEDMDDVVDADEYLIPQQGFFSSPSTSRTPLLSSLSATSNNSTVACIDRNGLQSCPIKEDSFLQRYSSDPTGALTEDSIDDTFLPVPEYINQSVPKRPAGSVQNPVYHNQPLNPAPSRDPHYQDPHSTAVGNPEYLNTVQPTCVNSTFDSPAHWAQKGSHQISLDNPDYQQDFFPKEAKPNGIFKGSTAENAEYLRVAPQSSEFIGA
T1 sequence (P00533 25-1210 T790M/L858R): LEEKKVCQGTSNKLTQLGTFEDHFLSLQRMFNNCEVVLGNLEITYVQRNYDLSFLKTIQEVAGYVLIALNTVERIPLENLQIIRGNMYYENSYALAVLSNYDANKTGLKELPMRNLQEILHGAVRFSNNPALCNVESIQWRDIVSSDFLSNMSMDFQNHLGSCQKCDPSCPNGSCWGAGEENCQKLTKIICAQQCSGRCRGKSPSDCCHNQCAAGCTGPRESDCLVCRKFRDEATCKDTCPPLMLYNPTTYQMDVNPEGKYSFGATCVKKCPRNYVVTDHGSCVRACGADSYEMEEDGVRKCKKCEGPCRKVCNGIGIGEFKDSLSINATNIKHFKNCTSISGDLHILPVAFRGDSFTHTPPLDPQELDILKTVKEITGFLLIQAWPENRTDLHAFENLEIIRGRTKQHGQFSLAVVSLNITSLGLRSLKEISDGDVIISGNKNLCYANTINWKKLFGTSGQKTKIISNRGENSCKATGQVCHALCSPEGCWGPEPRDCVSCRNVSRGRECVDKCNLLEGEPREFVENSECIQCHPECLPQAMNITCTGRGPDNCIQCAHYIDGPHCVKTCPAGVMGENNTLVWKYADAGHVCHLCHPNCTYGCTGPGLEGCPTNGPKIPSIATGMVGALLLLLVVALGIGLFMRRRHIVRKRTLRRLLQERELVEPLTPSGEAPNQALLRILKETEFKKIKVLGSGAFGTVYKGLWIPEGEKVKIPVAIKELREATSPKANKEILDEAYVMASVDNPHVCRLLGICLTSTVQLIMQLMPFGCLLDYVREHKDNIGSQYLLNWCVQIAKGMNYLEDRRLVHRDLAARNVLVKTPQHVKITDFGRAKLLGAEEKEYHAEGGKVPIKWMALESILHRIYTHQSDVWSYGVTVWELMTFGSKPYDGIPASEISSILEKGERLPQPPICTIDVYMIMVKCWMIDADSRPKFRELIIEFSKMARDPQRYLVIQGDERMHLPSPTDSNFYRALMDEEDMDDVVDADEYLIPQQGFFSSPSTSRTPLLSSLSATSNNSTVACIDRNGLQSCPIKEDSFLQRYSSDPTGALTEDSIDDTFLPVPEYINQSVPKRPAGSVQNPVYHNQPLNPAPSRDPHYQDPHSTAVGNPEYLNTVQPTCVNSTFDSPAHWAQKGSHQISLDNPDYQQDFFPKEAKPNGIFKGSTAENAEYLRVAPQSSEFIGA

solubility [1, 4] | IC50 [2] | IC50 [3, 5] | IC50 (EGFR-L858R/T790M; [6]) | IC50 (Wild type EGFR; [7]) | solubility ([1]; 20 mM phosphate buffer, pH 6.8, read-out: solubility in water) | IC50 ([3]; H1975 (EGFR-T790M/L858R), read-out: IC50 of inhibiting proliferation of H1975 cells) | IC50 (EGFR-L858R/T790M; read-out: IC50 of inhibitory activity on EGFR-T790M/L858R kinase) | IC50 (EGFR-L858R/T790M; EGFR T790M/L858R, read-out: Inhibitory activity of EGFR on kinase (IC50) T790M/L858R) | IC50 (Wild type EGFR; read-out: Inhibitory activity of EGFR on kinase (IC50) WT) | Structure (SMILES)
– | 0.94 µM | 0.009 µM | – | 4.5 nM | 1370 µg/mL (≈ 2670 µM) | 0.009 µM | 3.9 nM | – | – | C=CC(=O)Nc1cccc(-n2c(=O)cnc3cnc(Nc4ccc(N5CCN(C)CC5)c(OC)c4)nc32)c1 [Compound 4]
56.7 µg/mL (≈ 103 µM) | 1.75 µM | 0.016 µM | 1.5 nM | 65.2 nM | – | – | – | – | – | C=CC(=O)N1CC[C@H](n2c(=O)c(-c3ccccc3)nc3cnc(Nc4ccc(N5CCN(C)CC5)c(C)c4)nc32)C1 [Compound 25, (S)-8-(1-acryloyl-3-pyrrolidinyl)-2-((3-methyl-4-(4-methyl-1-piperazinyl)phenyl)amino)-6-phenyl-7(8H)-pteridinone]
2920 µg/mL (≈ 5650 µM) | 3.1 µM | 2.49 µM | 576 nM | 700 nM | – | – | – | – | – | C=CC(=O)N1CC[C@H](n2c(=O)c(C(C)C)nc3cnc(Nc4ccc(N5CCN(C)CC5)c(C)c4)nc32)C1 [Compound 24, (S)-8-(1-acryloyl-3-pyrrolidinyl)-6-isopropyl-2-((3-methyl-4-(4-methyl-1-piperazinyl)phenyl)amino)-7(8H)-pteridinone]
957 µg/mL (≈ 1850 µM) | > 10 µM | 1.42 µM | 191 nM | 2190 nM | – | – | – | – | – | C=CC(=O)N1CCC[C@H](Cn2c(=O)cnc3cnc(Nc4ccc(N5CCN(C)CC5)cc4OC)nc32)C1 [Compound 17]
1690 µg/mL (≈ 3410 µM) | 3.2 µM | 1.85 µM | 939 nM | 1730 nM | – | – | – | – | – | C=CC(=O)Nc1cc(Nc2ncc3nc(C(C)C)c(=O)n(C)c3n2)c(OC)cc1N(C)CCN(C)C [Compound 23]
< 10 µg/mL | 3.23 µM | 0.074 µM | 4.9 nM | 26 nM | – | – | – | – | – | C=CC(=O)Nc1cccc(-n2c(=O)c(C(C)C)nc3cnc(Nc4ccc(N5CCN(C)CC5)cc4OC)nc32)c1 [Compound 37, N-(3-(6-isopropyl-2-((2-methoxy-4-(4-methyl-1-piperazinyl)phenyl)amino)-7-oxo-8(7H)pteridinyl)phenyl)acrylamide]

More lines, now with the values behind:

Structure (SMILES) | solubility [1, 4] | IC50 [2] | IC50 [3, 5] | IC50 (EGFR-L858R/T790M; [6]) | IC50 (Wild type EGFR; [7]) | solubility ([1]; 20 mM phosphate buffer, pH 6.8, read-out: solubility in water) | IC50 ([3]; H1975 (EGFR-T790M/L858R), read-out: IC50 of inhibiting proliferation of H1975 cells) | IC50 (EGFR-L858R/T790M; read-out: IC50 of inhibitory activity on EGFR-T790M/L858R kinase) | IC50 (EGFR-L858R/T790M; EGFR T790M/L858R, read-out: Inhibitory activity of EGFR on kinase (IC50) T790M/L858R) | IC50 (Wild type EGFR; read-out: Inhibitory activity of EGFR on kinase (IC50) WT)
C=CC(=O)Nc1cccc(-n2c(=O)cnc3cnc(Nc4cc(C)c(N5CCN(C)CC5)cc4OC)nc32)c1 [Compound 6, N-(3-(2-4-((2-methoxy-5-methyl-4-(4-methyl-1-piperazinyl)phenyl)amino)-7-oxo-8(7H)-pteridinyl)phenyl)acrylamide] | 51.8 µg/mL (≈ 98.4 µM) | 1.69 µM | 0.46 µM | 14.8 nM | 106 nM | – | – | – | – | –
C=CC(=O)Nc1cccc(-n2c(=O)c(C(C)C)nc3cnc(Nc4ccc(N(C)CCN(C)C)cc4OC)nc32)c1 [Compound 19, N-(3-(2-((4-((2-(dimethylamino)ethyl)(methyl)amino)-2-methoxyphenyl)amino)-6-isopropyl-7-oxo-8(71-1)-pteridinyl)phenyl)acrylamide] | 90.7 µg/mL (≈ 163 µM) | 3.41 µM | 1.16 µM | 14.1 nM | 174 nM | – | – | – | – | –
C=CC(=O)Nc1cccc(-n2c(=O)cnc3cnc(Nc4ccc(N(C)CCN(C)C)cc4OC)nc32)c1 [Compound 18, N-(3-(2-((4-((2-(dimethylamino)ethyl)(methyl)amino)-2-methoxyphenyl)amino)-7-oxo-8(7H)-pteridinyl)phenyl)acrylamide] | 208 µg/mL (≈ 405 µM) | 1.66 µM | 0.06 µM | 1 nM | 47 nM | – | – | – | – | –
C=CC(=O)N1CCC[C@@H](n2c(=O)cnc3cnc(Nc4ccc(N5CCN(C)CC5)cc4OC)nc32)C1 [Compound 22] | 3230 µg/mL (≈ 6410 µM) | > 10 µM | > 10 µM | 6900 nM | > 10000 nM | – | – | – | – | –
C=CC(=O)N1CCC(n2c(=O)c(-c3ccccc3)nc3cnc(Nc4ccc(N5CCN(C)CC5)c(C)c4)nc32)C1 (stereo not drawn) [Compound 49, 8-(1-acryloyl-3-pyrrolidinyl)-2-((3-methyl-4-(4-methyl-1-piperazinyl)phenyl)amino)-6-phenyl-7(8H)pteridinone] | < 10 µg/mL | 0.287 µM | 0.368 µM | 14.2 nM | 19.2 nM | – | – | – | – | –
C=CC(=O)N1CC[C@H](n2c(=O)cnc3cnc(Nc4ccc(N5CCN(C)CC5)cc4OC)nc32)C1 [Compound 1] | 1280 µg/mL (≈ 2610 µM) | 13.8 µM | 12.2 µM | 129 nM | 251 nM | – | – | – | – | –
C=CC(=O)N1CC[C@H](n2c(=O)c(-c3ccccc3)nc3cnc(Nc4ccc(N5CCN(C)CC5)cc4OC)nc32)C1 [Compound 27, (S)-8-(1-acryloyl-3-pyrrolidinyl)-2-((2-methoxy-4-(4-methyl-1-piperazinyl)phenyl)amino)-6-phenyl-7(8H)-pteridinone] | 264 µg/mL (≈ 465 µM) | 1.85 µM | 0.116 µM | 3.8 nM | 53.7 nM | – | – | – | – | –
C=CC(=O)N1CC[C@H](n2c(=O)c(C(C)C)nc3cnc(Nc4ccc(N5CCN(C)CC5)cc4OC)nc32)C1 [Compound 26, (S)-8-(1-acryloyl-3-pyrrolidinyl)-6-isopropyl-2-((2-methoxy-4-(4-methyl-1-piperazinyl)phenyl)amino)-7(8H)-pteridinone] | 10500 µg/mL (≈ 19700 µM) | 9.5 µM | 3.23 µM | 559 nM | 1300 nM | – | – | – | – | –
C=CC(=O)N1CC[C@@H](n2c(=O)cnc3cnc(Nc4ccc(N5CCN(C)CC5)cc4OC)nc32)C1 [Compound 2] | 11100 µg/mL (≈ 22600 µM) | 89.6 µM | 18.2 µM | – | – | – | – | – | > 10000 nM | > 10000 nM
C=CC(=O)Nc1cccc(-n2c(=O)cnc3cnc(Nc4ccc(N5CCN(CCO)CC5)cc4OC)nc32)c1 [Compound 11, N-(3-(2-((4-(4-(2-hydroxyethyl)-1-piperazinyl)-2-methoxyphenyl)amino)-7-oxo-8 (7H)-pteridinyl)phenyl)acrylamide] | 48.6 µg/mL (≈ 89.6 µM) | 8.09 µM | 0.2 µM | 7.3 nM | 2.2 nM | – | – | – | – | –
